Patent US7514076B2, “Antitumor agents” (priority 1997, dated 2009)

What was measured:
S180 solid tumor = assay: Antitumor effect of PEG-DAO on S180 solid tumor model; format: in vivo, ddY mice; conditions: 1.5 U i.v. day 7, D-proline 0.5 mmol i.p. 2 and 4 hrs after; FIG. 10
Procedure: S180 cells (2×10^6 cells) were inoculated subcutaneously to ddY mice. Seven days after tumor inoculation, mice were injected i.v. with 1.5 U of native DAO or PEG-DAO followed by D-proline 0.5 mmol, i.p. (2 and 4 hrs after DAO administration).
In the FIG. 10, —●— indicates the result of treated mice by administration of PEG-DAO by […]. injection with D-proline, and —▴— indicates the result of administration of native DAO similarly with D-proline. —◯— indicates the result of control mice without any drug treatment Data are means (n=4-8)±SE (standard error). […] Thus, in vivo activity of PEG-DAO is excellent.

[1] = Time course of tumor accumulation of PEG-XO-high (XO activity in tumor homogenate, pterin substrate); format: in vivo, ddY mice
Procedure: The time course of the tumor accumulation of PEG-XO-high was examined by measuring the enzyme activity derived from PEG-XO-high in the tumor tissue. Tumor bearing mice were prepared as described above. PEG-XO-high (2 U/ml, 100 μl) was injected intravenously (i.v.) to the mice. After a given period, the tumor tissue was removed as described above. The tumor tissue was then homogenized with three volumes of 20 mM potassium phosphate buffer pH 7.6 which contained 2 mM ethylenediaminetetraacetic acid, 2 mM amidinophenylmethanesulfonyl fluoride, 10 mM dithiothreitol, 0.5 μg/ml of leupeptin. The homogenates were centrifuged at 10,000 g for 20 min, and each supernatant was applied to a FPLC system with a Superose 6 HR 10/30 column similar to the previous section. The enzyme activity of the PEG-XO-high fraction was determined fluorometrically, i.e., the formation of fluorescent isoxanthopterin from pterin was measured with an excitation at 345 nm and an emission at 390 nm, in which hypoxanthine was replaced with pterin as substrate. The quantification was made using the calibration curve of the authentic isoxanthopterin (Aldrich Chemical, Milwaukee, Wis.).

S-180 solid tumor = assay: Antitumor activity of PEG-XO in vivo with hypoxanthine; parameters: species or system ddY mice; conditions: for suppression of the tumor growth: FIG. 1
Procedure: When the tumors became palpable (5-7 mm in diameter), usually 7 days after implantation, the treatment was resumed.
Hypoxanthine (13.3 mg/kg) was injected intraperitoneally six times, each time more than 6 hrs after the last time, as indicated by asterisks (*) in the FIG. 1 to 3.

[2] = Enzyme activity of PEG-XO: formation of uric acid from hypoxanthine (absorbance at 290 nm); format: biochemical; conditions: for XO activity: 50 μM hypoxanthine, 50 mM sodium phosphate buffer pH 7.4, room temperature; for enzyme activity compared with native XO: relative to native XO
Procedure: The enzyme activity was determined by quantifying the formation of uric acid from hypoxanthine by measuring the increase of absorbance at 290 nm, an absorption maximum of uric acid. The initial concentration of the substrate hypoxanthine was 50 μM. The enzyme reaction was carried out in 50 mM sodium phosphate buffer (pH 7.4) at room temperature. One unit of XO activity is defined as the velocity of the formation of 1 μmol of uric acid per min.

[3] = Systemic side effect of PEG-XO-high/hypoxanthine; format: in vivo; conditions: PEG-XO/hypoxanthine therapy
[4] = Bray and Swann 1972; confirmed by the inventors; cited from earlier work
[5] = 2 administrations 0.6 U/mouse, hypoxanthine 13.3 mg/kg i.p.
[6] = 15 days after tumor inoculation, 2 times 0.6 U/mouse i.v. (day 7, 9), hypoxanthine 13.3 mg/kg i.p. six times

Substance	suppression of the tumor growth (S-180 solid tumor; [5])	weight of tumor (S-180 solid tumor; [6])	XO activity [2]	enzyme activity compared with native XO [2]	other results
D-amino acid oxidase [native DAO]					suppression of the tumor growth (S180 solid tumor): no significant reduction of the tumor growth
PEG-XO-high: Xanthine oxidase conjugated with succinimide activated-PEG (Mw 5000), 49% of amino groups modified	significant (p<0.05) suppression of the tumor growth	0.22 ± 0.05 g	1.15 U/mg protein	54%	XO activity in S-180 solid tumor tissue after injection ([1]; 0.2 U/mouse i.v., 24 hrs, FIG. 6B): a new large peak of XO activity was observed; PEG-XO-high activity in tumor over time ([1]; FIG. 7): increased in a time dependent manner; antitumor activity (S-180 solid tumor; 3 administrations 0.6 U/mouse, hypoxanthine 13.3 mg/kg i.p., FIG. 2): remarkable antitumor activity; weight of tumor (S-180 solid tumor; 13 days after tumor inoculation, 3 times 0.6 U/mouse i.v. (day 7, 8, 9), hypoxanthine 13.3 mg/kg i.p. 6 times): 0.13 ± 0.08 g; inhibition of tumor growth (S-180 solid tumor; day 13, 3 administrations 0.6 U/mouse, hypoxanthine 13.3 mg/kg i.p.): 77%; inhibition of the tumor growth (S-180 solid tumor; day 15, 2 administrations 0.6 U/mouse, hypoxanthine 13.3 mg/kg i.p.): 39%
PEG-XO-low: Xanthine oxidase conjugated with succinimide activated-PEG (Mw 5000), 17% of amino groups modified			2.40 U/mg protein	110%	
PEG-XO: Chemically conjugated XO with poly(ethylene glycol); generic term, in vivo work used PEG-XO-high					hematotoxicity or liver toxicity [3]: No serious or significant hematotoxicity or liver toxicity
xanthine oxidase [Native-XO]	no significant reduction of the tumor growth	0.31 ± 0.03 g	2.12 U/mg protein		antitumor effect of native XO (literature) [4]: insignificant
